Source: ChEMBL document CHEMBL1777768, “Comparative CYP1A1 and CYP1B1 substrate and inhibitor profile of dietary flavonoids” (Bioorg Med Chem, 2011)
Calls of active or inactive are those of the source. The rule behind the calls is not given here.

How the values were obtained:
Cytochrome P450 1A1 [1] = molecular target: T1, Cytochrome P450 1A1 (Homo sapiens, UniProt P04798); experiment: Inhibition of CYP1A1 EROD activity assessed as inhibition of deethylation of 7-ethoxyresorufin to resorufin; type: ADME
T1 sequence (P04798 whole entry): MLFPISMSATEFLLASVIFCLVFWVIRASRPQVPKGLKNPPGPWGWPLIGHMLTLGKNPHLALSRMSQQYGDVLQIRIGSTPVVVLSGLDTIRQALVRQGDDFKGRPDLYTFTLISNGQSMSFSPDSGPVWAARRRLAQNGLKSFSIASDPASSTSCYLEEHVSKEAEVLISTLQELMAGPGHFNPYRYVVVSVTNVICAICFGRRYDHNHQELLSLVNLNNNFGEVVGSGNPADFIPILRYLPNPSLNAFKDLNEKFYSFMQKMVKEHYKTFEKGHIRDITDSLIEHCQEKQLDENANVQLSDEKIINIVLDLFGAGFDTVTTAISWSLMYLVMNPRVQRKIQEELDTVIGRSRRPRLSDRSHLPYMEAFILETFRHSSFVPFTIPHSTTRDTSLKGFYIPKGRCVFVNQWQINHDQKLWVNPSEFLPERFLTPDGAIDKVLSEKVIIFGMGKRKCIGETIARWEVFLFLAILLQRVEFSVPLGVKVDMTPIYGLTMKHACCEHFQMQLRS

MDA-MB-468 [2] = experiment: Activation factor, ratio of IC50 for non-CYP1 expressing human MCF10A to IC50 for CYP1 expressing human MDA-MB-468 cells; type: functional
Cytochrome P450 1B1 = molecular target: T2, Cytochrome P450 1B1 (Homo sapiens, UniProt Q16678); experiment: Inhibition of CYP1B1 EROD activity assessed as inhibition of deethylation of 7-ethoxyresorufin to resorufin; type: ADME
T2 sequence (Q16678 whole entry): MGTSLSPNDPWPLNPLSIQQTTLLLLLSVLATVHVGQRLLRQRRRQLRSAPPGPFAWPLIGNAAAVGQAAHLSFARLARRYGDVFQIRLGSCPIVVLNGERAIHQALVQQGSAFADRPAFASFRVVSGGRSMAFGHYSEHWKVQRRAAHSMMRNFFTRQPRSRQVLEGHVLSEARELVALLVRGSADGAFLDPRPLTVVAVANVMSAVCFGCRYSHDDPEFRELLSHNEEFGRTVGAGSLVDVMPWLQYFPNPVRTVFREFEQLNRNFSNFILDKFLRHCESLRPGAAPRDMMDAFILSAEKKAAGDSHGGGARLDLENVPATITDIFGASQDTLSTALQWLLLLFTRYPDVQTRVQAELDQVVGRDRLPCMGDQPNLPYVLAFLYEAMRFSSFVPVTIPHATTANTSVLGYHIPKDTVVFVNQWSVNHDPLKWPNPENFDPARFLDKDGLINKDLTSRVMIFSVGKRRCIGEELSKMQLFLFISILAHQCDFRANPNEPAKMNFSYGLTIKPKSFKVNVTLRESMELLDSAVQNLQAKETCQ

Cytochrome P450 1A1 [3] = molecular target: T1, Cytochrome P450 1A1; experiment: Activity at recombinant CYP1A1 assessed as luteolin production at 10 uM after 20 mins by HPLC analysis; type: ADME; settings: recombinant enzyme
Cytochrome P450 1A1 [4] = molecular target: T1, Cytochrome P450 1A1; experiment: Activity at recombinant CYP1A1 assessed as apigenin production at 10 uM after 20 mins by HPLC analysis; type: ADME; settings: recombinant enzyme
CYP1A1 = molecular target: T3, CYP1A1 (Homo sapiens, UniProt P04798); experiment: Activity at CYP1A1 in recombinant human CYP1A1 microsomes assessed as parent compound remaining after 20 mins by HPLC analysis
T3 sequence (P04798 whole entry): T1 sequence (P04798 whole entry)

Cytochrome P450 1A1 [5] = molecular target: T1, Cytochrome P450 1A1; experiment: Activity at recombinant CYP1A1 assessed as AM1 metabolite retention time at 10 uM by HPLC analysis; type: ADME; settings: recombinant enzyme
Cytochrome P450 1A1 [6] = molecular target: T1, Cytochrome P450 1A1; experiment: Activity at recombinant CYP1A1 assessed as AM1 metabolite production at 10 uM after 20 mins by HPLC analysis; type: ADME; settings: recombinant enzyme
Cytochrome P450 1A1 [7] = molecular target: T1, Cytochrome P450 1A1; experiment: Activity at recombinant CYP1A1 assessed as scutellarein production at 10 uM after 20 mins by HPLC analysis; type: ADME; settings: recombinant enzyme
Cytochrome P450 1A1 [8] = molecular target: T1, Cytochrome P450 1A1; experiment: Activity at recombinant CYP1A1 assessed as E5M1 metabolite elution time at 10 uM by HPLC analysis; type: ADME; settings: recombinant enzyme
MCF-10A = experiment: Anticancer activity against non-CYP1 expressing human MCF10A cells by MTT assay; type: functional, cell-based
MDA-MB-468 [9] = experiment: Anticancer activity against CYP1 expressing human MDA-MB-468 cells by MTT assay; type: functional, cell-based
[10] = molecular target: Cytochrome P450 1B1 (Homo sapiens) (UniProt Q16678); experiment: Activity at recombinant CYP1B1 assessed as E5M1 metabolite elution time at 10 uM by HPLC analysis; settings: recombinant enzyme

| SMILES | Ki (Cytochrome P450 1A1 [1]) [nM] | Ki (Cytochrome P450 1B1) [nM] | remaining at 20 min (CYP1A1) [%] | Ratio IC50 (MDA-MB-468 [2]) | further results |
| --- | --- | --- | --- | --- | --- |
| O=c1cc(-c2ccccc2)oc2cc(O)c(O)c(O)c12 [BAICALEIN] | 1220 | 260 |  | 1.7 |  |
| O=c1c(O)c(-c2cc(O)c(O)c(O)c2)oc2cc(O)cc(O)c12 [MYRICETIN] | 370 | 27 |  |  |  |
| O=c1cc(-c2ccc(O)cc2)oc2cc(O)c(O)c(O)c12 [SCUTELLAREIN] | 1640 | 220 | 12.6 | 3.3 |  |
| O=c1cc(-c2ccccc2)oc2cc(O)cc(O)c12 [CHRYSIN] |  |  | 15.9 |  |  |

Second part, led by results:

| Ki (Cytochrome P450 1A1 [1]) [nM] | Ki (Cytochrome P450 1B1) [nM] | remaining at 20 min (CYP1A1) [%] | SMILES | Ratio IC50 (MDA-MB-468 [2]) | further results |
| --- | --- | --- | --- | --- | --- |
|  |  | 15.9 | COc1ccc(-c2cc(=O)c3c(O)cc(O)cc3o2)cc1 [ACACETIN] |  | Activity (Cytochrome P450 1A1 [3]): Active; Activity (Cytochrome P450 1A1 [4]): Active; Time (Cytochrome P450 1A1 [5]): 11.3 min; Activity (Cytochrome P450 1A1 [6]): Active; Activity (Cytochrome P450 1A1 [7]): Active |
| > 800 | > 800 | 16.7 | COc1cc2oc(-c3ccc(O)c(O)c3)cc(=O)c2c(O)c1OC [CIRSILIOL] | 8 |  |
| 210 | 35 | 47.8 | COc1ccc(-c2cc(=O)c3c(O)c(OC)c(OC)cc3o2)cc1O [EUPATORIN] | 100 |  |
| > 2340 | > 2340 | 34 | COc1cc(O)c2c(=O)cc(-c3ccc(O)cc3)oc2c1 [GENKWANIN] | 47 |  |
|  |  | 68.9 | COc1ccc(-c2cc(=O)c3c(OC)c(OC)c(OC)cc3o2)cc1OC [SINENSETIN] | 325 |  |
| 630 | 670 | 20.4 | COc1ccc(-c2cc(=O)c3c(OC)c(OC)c(OC)cc3o2)cc1O | 100 | Time (Cytochrome P450 1A1 [8]): 8.9 min; Activity (MCF-10A): inactive; Activity (MDA-MB-468 [9]): Active; Time [10]: 8.9 min |
